Patent US9249345B2, “Concentrate for medical solutions, production thereof and use thereof in dialysis” (FRESENIUS MEDICAL CARE DEUTSCHLAND GMBH, priority 2010, dated 2016)

Key:
Type in all cases: physicochemical
[1] = Water uptake into concentrate container without gas barrier, Example 6; settings: 40° C., 75% relative humidity; for water uptake into the concentrate container (water content in percent by weight): after about 26 weeks; for water uptake: period of 6 months
Protocol: The water uptake into a concentrate container without a gas barrier, comprising MgCl2×6H2O or alkaline magnesium carbonate, 4MgCO3×Mg(OH)2×5H2O respectively, was compared. The concentrate containers were each exposed in the climate chamber to 40° C. and 75% relative humidity for several weeks. […] The time in weeks is plotted on the abscissa. The water content in percent by weight is plotted on the ordinate.

[2] = Caking behaviour of concentrates in containers stored in climate chamber, Examples 2-4; settings: Example 4; 40° C., 75% relative humidity, 6 months
Excerpt: The container comprised of film material without appreciable gas-barrier properties is depicted on the left of FIG. 1. […] The container shown on the right of FIG. 1 comprised the same materials. Additionally, said film comprised a gas-barrier layer of silicon oxide. The gas permeability of said film was below 20 cm^3/(m^2·d·bar) for CO2, as measured in accordance with DIN 53380—part 4. […] 1.
The stability of a concentrate comprised of components according to the invention versus conventional components was tested. […] It was assumed that the crystal water of the glucose in conjunction with sodium chloride caused caking.

[3] = Storage of MgCl2×6H2O in gas-permeable concentrate container in climate chamber, Example 5; settings: 40° C., 75% relative humidity, 6 months
Protocol: MgCl2×6H2O was stored in the climate chamber at 40° C. and 75% relative humidity in a gas-permeable concentrate container.

| water uptake into the concentrate container (water content in percent by weight) [1] | water uptake [1] | caking [2] | physical state after storage [3] | Compound |
| --- | --- | --- | --- | --- |
| no water uptake | did not absorb any water | – | – | alkaline magnesium carbonate, 4MgCO3×Mg(OH)2×5H2O |
| – | – | does not promote caking | – | OC[C@H]1OC(O)[C@H](O)[C@@H](O)[C@@H]1O (stereo partly drawn) [anhydrous glucose] |
| ~24% | significant water uptake | – | liquefied | O.O.O.O.O.O.[Cl-].[Cl-].[Mg+2] [MgCl2×6H2O, magnesium chloride with crystal water, MgCl2×6H2O] |
